{
  "source": "patent US20070232650A1",
  "about": "“Malate salts, and polymorphs of (3S,5S)-7-[3-amino-5-methyl-piperidinyl]-1-cyclopropyl-1,4-dihydro-8-methoxy-4-oxo-3-quinolinecarboxylic acid” (The Procter & Gamble Company, priority 2006, published 2007)",
  "key": {"[1]": {"assay": "Solubility of isolated salt forms (salt screen)"}, "[2]": {"assay": "Chemical stability of salt forms", "type": "physicochemical", "settings": "upon scale up", "excerpt": "Malate salts of 7-[3S-amino-5S-methyl-piperidinyl]-1-cyclopropyl-1,4-dihydro-8-methoxy-4-oxo-3-quinolinecarboxylic acid may be formed and isolated under practical manufacturing conditions. Use of the chiral malate for salt formation (as the racemic mix or the chirally pure forms) may in some instances assist with chiral purification of 7-[3S-amino-5S-methyl-piperidinyl]-1-cyclopropyl-1,4-dihydro-8-methoxy-4-oxo-3-quinolinecarboxylic acid. […] Using the same test methods, the anhydrate forms are shown to pick up moisture and spontaneously convert to the corresponding hydrated form upon exposure to humidity."}},
  "data": [
    {"molecule": "COc1c(N2C[C@@H](C)C[C@H](N)C2)ccc2c(=O)c(C(=O)O)cn(C3CC3)c12", "note": "(racemic) [DL-malate, hemi-hydrate, (3S,5S)-7-[3-amino-5-methyl-piperidinyl]-1-cyclopropyl-1,4-dihydro-8-methoxy-4-oxo-3-quinolinecarboxylic acid]", "values": [
      {"measurement": "Solubility", "setting": "[1]; salt screen, Table 1", "value": "12 (hemi- mg/ml"}
    ]},
    {"molecule": "Fumarate", "values": [
      {"measurement": "Solubility", "setting": "[1]; salt screen, Table 1", "value": 9, "unit": "mg/mL"}
    ]},
    {"molecule": "O=C(O)[C@H]1OC(O)[C@H](O)[C@@H](O)[C@@H]1O", "note": "(stereo partly drawn) [D-Glucuronate]", "values": [
      {"measurement": "Ease of Isolation (degradation)", "setting": "[2]", "value": "Degradation"},
      {"measurement": "Solubility", "setting": "[1]; salt screen, Table 1", "value": 8, "unit": "mg/mL"}
    ]},
    {"molecule": "COc1c(N2C[C@@H](C)C[C@H](N)C2)ccc2c(=O)c(C(=O)O)cn(C3CC3)c12", "note": "[Freebase, (3S,5S)-7-[3-amino-5-methyl-piperidinyl]-1-cyclopropyl-1,4-dihydro-8-methoxy-4-oxo-3-quinolinecarboxylic acid]", "values": [
      {"measurement": "Solubility", "setting": "[1]; water", "value": "< 1", "unit": "mg/mL"}
    ]}
  ]
}
